# Results as given in US12398141B2 (SHANGHAI SYNERGY PHARMACEUTICAL SCIENCES CO., LTD, priority 2019, dated 2025).
# Columns and labels:
# Blast T cell = test: Cell proliferation test of IL-2 stimulated Blast T cell; type: cell-based; conditions: Homo sapiens; IL-2 stimulated Blast T cell proliferation, 72 hours
# Protocol: Inhibiting test of the compounds of the invention on proliferation of Blast T cell and TF-1 cell (American type culture collection) was carried out by the following method. The tested compounds […], and […] were dissolved in dimethyl sulfoxide from 0.0006 to 10 μM in quadruplicate dilutions. […] 10 μg/ml […] was added to stimulate and obtain cells with a density of 2×10^6/mL, which were incubated for 3 days. The cells were washed with phosphate buffer for three times and IL-2 (100 u/ml) was added to stimulate for 1 week. Cells were suspended using the culture medium and seeded at 5×10^4 cell/well density into 96-well plates, and incubated for 1 h with the prepared test compound or DMSO control at various concentrations from 0.0006 to 10 μM diluted by 4-fold volume. After incubation with 20 u/ml of IL-2 (50 μl/well without reference well) for 72 hours, Celltiter Glo® reagent (Promega, G7571) was added and mixed for 5 minutes, then incubated for 30 minutes at room temperature. The luminescence value was read on SpectraMax L (Molecular Device). […] The IC50 values of the corresponding compounds were then obtained by fitting by using the XLFit fitting tool in excel.
# JAK1 = JAK1 (Homo sapiens (Human), UniProt P23458); test: JAK1 LANCE Ultra kinase assay; type: biochemical; conditions: for IC50: 38 uM ATP; for JAK2/JAK1: ratio of IC50 JAK2 to IC50 JAK1
# JAK1, sequence (P23458 whole entry): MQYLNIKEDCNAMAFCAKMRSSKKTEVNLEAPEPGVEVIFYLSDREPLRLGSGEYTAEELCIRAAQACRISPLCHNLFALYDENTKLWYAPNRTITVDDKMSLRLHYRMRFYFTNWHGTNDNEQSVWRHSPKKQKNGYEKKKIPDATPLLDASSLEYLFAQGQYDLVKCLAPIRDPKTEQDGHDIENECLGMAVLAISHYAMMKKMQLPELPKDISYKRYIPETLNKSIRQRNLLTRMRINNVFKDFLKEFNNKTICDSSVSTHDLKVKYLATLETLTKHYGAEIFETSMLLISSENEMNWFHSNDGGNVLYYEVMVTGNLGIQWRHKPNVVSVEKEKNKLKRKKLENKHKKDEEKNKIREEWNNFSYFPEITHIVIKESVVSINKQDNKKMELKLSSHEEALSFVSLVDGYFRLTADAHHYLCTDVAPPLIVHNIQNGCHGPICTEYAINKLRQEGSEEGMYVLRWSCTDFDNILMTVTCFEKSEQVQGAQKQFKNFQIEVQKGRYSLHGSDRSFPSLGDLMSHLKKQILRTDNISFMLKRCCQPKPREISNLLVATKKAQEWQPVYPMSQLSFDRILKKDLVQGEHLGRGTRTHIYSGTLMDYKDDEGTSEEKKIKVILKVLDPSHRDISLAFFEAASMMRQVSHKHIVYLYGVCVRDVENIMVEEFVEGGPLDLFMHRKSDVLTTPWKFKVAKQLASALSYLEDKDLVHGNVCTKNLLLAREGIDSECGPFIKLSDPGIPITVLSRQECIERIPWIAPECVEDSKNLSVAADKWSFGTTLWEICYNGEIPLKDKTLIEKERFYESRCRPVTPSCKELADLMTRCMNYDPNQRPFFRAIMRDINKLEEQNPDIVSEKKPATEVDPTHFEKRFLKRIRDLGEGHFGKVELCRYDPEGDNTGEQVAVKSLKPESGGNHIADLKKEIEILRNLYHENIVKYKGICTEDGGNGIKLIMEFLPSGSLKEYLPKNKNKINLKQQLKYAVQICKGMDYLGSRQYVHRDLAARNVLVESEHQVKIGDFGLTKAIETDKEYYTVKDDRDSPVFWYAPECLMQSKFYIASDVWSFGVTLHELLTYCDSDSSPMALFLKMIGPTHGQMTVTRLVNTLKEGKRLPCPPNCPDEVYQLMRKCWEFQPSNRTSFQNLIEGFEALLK
# Protocol: Inhibition test on activity of JAK kinase in vitro was carried out by the following methods.
# JAK1 LANCE® Ultra assay, JAK2 LANCE® Ultra assay and JAK3 LANCE® Ultra assay were used to carry out the test separately, and kits of the above assays were supplied by PerkinElmer. […]
# JAK1, JAK2 and JAK3 kinase, ATP and substrates were dissolved and diluted with buffers.
# A test liquid was 2 nM Eu-W1024 anti-phosphotyrosine (PerkinElmer, AD0069). A stop buffer was 10 mM edetic acid (Intech, 1842C505).
# 2.5 μl of an 8-fold solution of the compound and 5 μl of a 4-fold solution of JAK1 or JAK2 or JAK3 kinase were added into a 384-well plate, respectively, and reacted for 10 minutes at room temperature. 2.5 μl of an 8-fold solution of ULight™-JAK-1 peptide/ATP was added and reacted for 90 minutes at room temperature. Finally, 5 μl of 4-fold edetic acid stop buffer and 5 μl of 4-fold test liquid of Eu-W1024 anti-phosphotyrosine were added and incubated for 60 minutes.
# According to the formula: percentage of inhibition rate=(maximum value−transform value)/(maximum value−minimum value)×100, inhibition rate of each compound at various concentrations was calculated. The maximum value was the reference value of dimethyl sulfoxide added into the well plate, the minimum value was the blank value, and the transform value is the value obtained by the well of each compound. The IC50 values of the corresponding compounds were then obtained by fitting by using the XLFit fitting tool in excel.
# JAK3 = JAK3 (Homo sapiens (Human), UniProt P52333); test: JAK3 LANCE Ultra kinase assay; type: biochemical; conditions: 4 uM ATP
# JAK3, sequence (P52333 whole entry): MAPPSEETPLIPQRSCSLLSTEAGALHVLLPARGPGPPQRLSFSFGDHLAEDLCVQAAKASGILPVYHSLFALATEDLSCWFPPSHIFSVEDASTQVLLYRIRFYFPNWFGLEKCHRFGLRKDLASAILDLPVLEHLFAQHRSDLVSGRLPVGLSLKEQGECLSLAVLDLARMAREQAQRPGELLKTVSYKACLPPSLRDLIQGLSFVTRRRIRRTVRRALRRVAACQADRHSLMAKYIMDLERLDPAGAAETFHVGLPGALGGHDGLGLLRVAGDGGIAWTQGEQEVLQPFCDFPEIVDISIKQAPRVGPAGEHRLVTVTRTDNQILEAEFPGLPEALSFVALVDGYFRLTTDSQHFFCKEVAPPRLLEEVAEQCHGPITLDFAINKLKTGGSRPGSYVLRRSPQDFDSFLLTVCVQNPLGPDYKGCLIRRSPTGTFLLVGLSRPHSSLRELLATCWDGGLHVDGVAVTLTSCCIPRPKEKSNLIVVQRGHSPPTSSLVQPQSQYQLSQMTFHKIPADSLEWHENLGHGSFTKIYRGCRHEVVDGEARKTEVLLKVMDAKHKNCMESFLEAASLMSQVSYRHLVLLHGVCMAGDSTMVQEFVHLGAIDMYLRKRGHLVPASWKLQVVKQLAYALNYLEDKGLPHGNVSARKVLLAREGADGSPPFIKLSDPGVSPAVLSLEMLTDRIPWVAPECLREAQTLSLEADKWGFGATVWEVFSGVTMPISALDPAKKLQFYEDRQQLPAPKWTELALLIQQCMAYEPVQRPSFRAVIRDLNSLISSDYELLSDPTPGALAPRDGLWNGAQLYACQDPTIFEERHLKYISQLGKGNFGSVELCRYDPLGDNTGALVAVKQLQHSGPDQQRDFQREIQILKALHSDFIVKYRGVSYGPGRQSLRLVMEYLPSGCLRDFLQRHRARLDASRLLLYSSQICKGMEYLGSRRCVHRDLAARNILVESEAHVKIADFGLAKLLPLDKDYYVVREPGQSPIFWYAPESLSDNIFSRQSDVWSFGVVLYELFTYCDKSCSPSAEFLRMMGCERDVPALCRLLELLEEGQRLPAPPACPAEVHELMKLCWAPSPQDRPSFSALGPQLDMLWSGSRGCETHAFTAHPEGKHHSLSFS
# TF-1 cell = TF-1 cell proliferation test; type: cell-based; conditions: Homo sapiens, 72 h
# Protocol: Inhibiting test of the compounds of the invention on proliferation of Blast T cell and TF-1 cell (American type culture collection) was carried out by the following method. The tested compounds […], and […] were dissolved in dimethyl sulfoxide from 0.0006 to 10 μM in quadruplicate dilutions. […] The luminescence value was read on Microplate Reader (Molecular Device). […] The IC50 values of the corresponding compounds were then obtained by fitting by using the XLFit fitting tool in excel.
# JAK2 = JAK2 (Homo sapiens (Human), UniProt O60674); test: JAK2 LANCE Ultra kinase assay; type: biochemical; conditions: 12 uM ATP
# JAK2, sequence (O60674 whole entry): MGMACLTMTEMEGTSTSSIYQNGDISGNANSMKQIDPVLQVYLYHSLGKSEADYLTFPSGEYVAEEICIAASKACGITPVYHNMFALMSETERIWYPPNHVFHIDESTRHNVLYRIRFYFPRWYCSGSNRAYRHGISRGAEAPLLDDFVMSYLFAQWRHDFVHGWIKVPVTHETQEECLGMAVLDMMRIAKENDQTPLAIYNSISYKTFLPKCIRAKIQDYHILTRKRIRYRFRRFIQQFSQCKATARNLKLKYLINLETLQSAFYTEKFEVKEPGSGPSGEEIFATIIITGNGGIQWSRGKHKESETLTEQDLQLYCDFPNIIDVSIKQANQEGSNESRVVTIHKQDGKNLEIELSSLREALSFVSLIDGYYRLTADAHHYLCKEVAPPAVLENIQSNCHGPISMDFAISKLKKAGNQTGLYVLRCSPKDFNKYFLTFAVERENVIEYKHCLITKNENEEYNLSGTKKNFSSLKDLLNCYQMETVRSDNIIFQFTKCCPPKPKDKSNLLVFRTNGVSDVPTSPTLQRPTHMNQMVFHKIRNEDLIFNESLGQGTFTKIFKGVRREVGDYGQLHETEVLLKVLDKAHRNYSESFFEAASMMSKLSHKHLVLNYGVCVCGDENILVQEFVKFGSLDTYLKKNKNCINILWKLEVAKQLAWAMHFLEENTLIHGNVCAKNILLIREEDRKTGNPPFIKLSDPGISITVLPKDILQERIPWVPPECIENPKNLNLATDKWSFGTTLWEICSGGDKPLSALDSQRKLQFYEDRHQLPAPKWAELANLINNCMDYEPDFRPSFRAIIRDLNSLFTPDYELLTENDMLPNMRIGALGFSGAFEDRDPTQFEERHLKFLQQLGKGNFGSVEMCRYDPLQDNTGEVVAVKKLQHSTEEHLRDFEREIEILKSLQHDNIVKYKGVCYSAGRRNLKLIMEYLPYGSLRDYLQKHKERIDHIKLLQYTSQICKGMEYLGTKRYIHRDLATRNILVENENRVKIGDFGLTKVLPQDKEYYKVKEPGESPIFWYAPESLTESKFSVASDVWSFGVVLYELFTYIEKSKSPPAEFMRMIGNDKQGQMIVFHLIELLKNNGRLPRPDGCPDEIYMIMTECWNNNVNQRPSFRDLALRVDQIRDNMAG
# male ICR mice = test: Carrageenan-induced paw swelling in mice; type: in vivo; conditions: 10 mg/kg intragastric
# Protocol: (§1) The inhibiting effects of compounds H01, H07, H11, H12, H14, H15, H22, H25, H29, H30, H33, H39 and H44 on paw swelling in mice were determined after intragastric administration by using male ICR mice (ShanghaiSippr-BK laboratory animal Co. Ltd.), aged 8 weeks and weighing 22-24 g as test animals. The anti-inflammatory pharmacodynamics characteristic of the compounds of the invention was discussed.
# A certain amount of compounds were taken and dissolved in 4% Tween 80/0.5% hydroxy propyl methyl cellulose solution. A volume of intragastric administration in mice was 10 ml/kg.
# Mice were given 10 mg/kg compounds H01, H07, H11, H12, H14, H15, H22, H25, H29, H30, H33, H39, and H44 and the positive drug indomethacin (Diamond Reagent Co., Ltd., China) by intragastric administration at the dosages shown in the table below and 20 μL 1% (W/V) carrageenan was injected subcutaneously into the plantar 0.5 h later. A paw volume was measured with a paw swelling meter before and at different time points after modeling (0.5 h, 1 h and 2 h). According to the formula: paw swelling rate=(paw volume after administration−basic paw volume)/basic paw volume×100, the inhibiting effect of the compounds on paw volume was calculated. The basic paw volume was a paw volume before administration.
# Sprague-Dawley (SD) mice = test: Concanavalin-induced paw swelling in mice; type: in vivo; conditions: 10 mg/kg intragastric
# Protocol: as §1, with “H13,” for “H01, H07, H11, H12,”, “H09, H11” for “H15, H22, H25, H29, H30, H33, H39”, “compounds of Example 12” for “H44”, “Sprague-Dawley (SD)” for “male ICR”, “6-7” for “8”, “160-180” for “22-24”
# A certain amount of compounds were taken and dissolved in 4% Tween 80/0.5% hydroxy propyl methyl cellulose solution.
# Mice were given compounds H01, H07, H11, H12, H14, H15, H22, H25, H29, H30, H33, H39, and H44 and the positive drug indomethacin (Diamond Reagent Co., Ltd., China) by intragastric administration at the dosages shown in the table below and 0.1 ml 0.03% (W/V) concanavalin was injected subcutaneously into the plantar 0.5 h later. A paw volume was measured with a paw swelling meter before modeling and 1 h, 2 h, 4 h and 6 h after modeling. According to the formula: paw swelling rate=(paw volume after administration−basic paw volume)/basic paw volume×100, the inhibiting effect of the compounds on paw volume was calculated. The basic paw volume was a paw volume before administration.
SMILES,IC50 (JAK1),JAK2/JAK1 (JAK1),IC50 (JAK3),IC50 (JAK2),IC50 (Blast T cell),IC50 (TF-1 cell),other results
"CC[C@@H]1CN(C(=O)CC(F)(F)F)C[C@@H]1N(C)c1c(C#N)cnc2[nH]ccc12 (relative stereo) [Compound H03, (cis)-4-{[4-ethyl-1-(3,3,3-trifluoropropionyl)pyrrolidin-3-yl]-methyl-amino}-1H-pyrrolo[2,3-b]pyridin-5-carbonitrile]",2.86 nM,7.69,133 nM,22 nM,0.027 µM,0.76 µM,–
CC[C@@H]1CN(C(=O)NCC(F)(F)F)CC1N(C)c1c(C#N)cnc2[nH]ccc12 (stereo partly shown) [Compound H02],–,–,–,–,0.48 µM,1.34 µM,–
"N#Cc1cnc2[nH]ccc2c1N[C@H]1C[C@@H](NS(=O)(=O)c2cccc3nonc23)C1 [Compound H19, (cis)-4-{[3-(benzo[c][1,2,5]oxadiazole-4-sulfonamido)-cyclobutyl-1-yl]-amino}-1H-pyrrolo[2,3-b]pyridin-5-carbonitrile]",–,–,–,–,0.024 µM,2.3 µM,–
N#Cc1cnc2[nH]ccc2c1NC1CCN(S(=O)(=O)c2cccc(C(F)(F)F)c2)CC1 [Compound H34],–,–,–,–,0.044 µM,1.54 µM,–
"CNc1nsc(NC(=O)N2C[C@H]3C[C@H](N(C)c4c(C#N)cnc5[nH]ccc45)C[C@H]3C2)n1 [Compound H41, (3aR,5s,6aS)-5-((5-cyano-1H-pyrrolo[2,3-b]pyridin-4-yl)(methyl)amino)-N-(3-(methylamino)-1,2,4-thiadiazole-5-yl)hexahydrocyclopentadiene[c]pyrrole-2(1H)-carboxamide]",–,–,–,–,0.055 µM,1.64 µM,–
"CC[C@@H]1CC(NS(=O)(=O)c2cccc3nonc23)C[C@@H]1Nc1c(C#N)cnc2[nH]ccc12 (stereo partly shown) [Compound H58, N-(3-((5-cyano-1H-pyrrolo[2,3-b]pyridin-4-yl)amino)-4-ethylcyclopentyl)benzo[c][1,2,5] oxadiazole-4-sulfamide]",–,–,–,–,0.041 µM,0.98 µM,–
"COc1ccc2c(c1)c(CC(=O)O)c(C)n2C(=O)c1ccc(Cl)cc1 [Indomethacin, reference compound]",–,–,–,–,–,–,Paw swelling_0.5 h (%) (male ICR mice; 0.5 h): 32.91 ± 3.22%; Paw swelling rate_1 h (%) (male ICR mice; 1 h): 42.21 ± 4.64%; Paw swelling rate_2 h (%) (male ICR mice; 2 h): 55.10 ± 2.21%; Paw swelling rate_1 h (%) (Sprague-Dawley (SD) mice; 1 h): 34.00 ± 2.30%; Paw swelling rate_2 h (%) (Sprague-Dawley (SD) mice; 2 h): 44.80 ± 3.00%; Paw swelling rate_4 h (%) (Sprague-Dawley (SD) mice; 4 h): 42.70 ± 2.00%; Paw swelling rate_6 h (%) (Sprague-Dawley (SD) mice; 6 h): 36.20 ± 2.00%

# Continued, in another order:
IC50 (JAK1),JAK2/JAK1 (JAK1),IC50 (JAK3),IC50 (JAK2),SMILES,IC50 (Blast T cell),IC50 (TF-1 cell),other results
5.47 nM,2.86,48 nM,15.7 nM,"CC[C@@H]1CN(C(=O)NC(C)C(C)C)C[C@@H]1Nc1c(C#N)cnc2[nH]ccc12 (relative stereo) [Compound H85, (cis)-3-((5-cyano-1H-pyrrolo[2,3-b]pyridin-4-yl)amino)-4-ethyl-N-(3-methylbutane-2-yl) pyrrolidin-1-carboxamide]",0.032 µM,1.47 µM,–
8.21 nM,1.81,258 nM,14.9 nM,"CC[C@@H]1CN(C(=O)NCC(F)(F)F)C[C@@H]1Nc1c(C(F)(F)F)cnc2[nH]ccc12 (relative stereo) [Compound H92, (cis)-3-ethyl-N-(2,2,2-trifluoroethyl)-4-((5-(trifluoromethyl)-1H-pyrrolo[2,3-b]pyridin-4-yl)amino)pyrrolidin-1-carboxamide]",0.027 µM,0.91 µM,–
0.39 nM,7.69,63 nM,3 nM,"CCc1nsc(NC(=O)N2C[C@H]3C[C@H](N(C)c4c(C#N)cnc5[nH]ccc45)C[C@H]3C2)n1 [Compound H08, (3aR,5s,6aS)-4-({2-[(3-ethyl-1,2,4-thiadiazole-5-yl)carbamoyl]-hexahydrocyclopenta[c]pyrrole-5-yl}-methyl-amino)-1H-pyrrolo[2,3-b]pyridin-5-carbonitrile]",0.026 µM,1.3 µM,–
2.9 nM,6.41,152 nM,18.6 nM,"CC[C@@H]1CN(C(=O)Nc2nc(OC)ns2)C[C@@H]1Nc1c(C#N)cnc2[nH]ccc12 [Compound H80, 4-(((cis)-4-ethyl-1-(3-methoxy-1,2,4-thiadiazole-5-aminocarbonyl)pyrrolidin-3-yl)amino)-1H-pyrrolo[2,3-b]pyridin-5-carbonitrile]",–,–,–
8.9 nM,7.75,172 nM,69 nM,"CCC1CN(C(=O)NCC2CC2)CC1Nc1c(C#N)cnc2[nH]ccc12 (stereo not shown) [Compound H82, 3-((5-cyano-1H-pyrrolo[2,3-b]pyridin-4-yl)amino)-4-ethyl-N-(cyclopropylmethyl)pyrrolidin-1-carboxamide]",–,–,–
5.1 nM,8.82,73 nM,45 nM,"CCC1CN(C(=O)NCC(F)F)CC1Nc1c(C#N)cnc2[nH]ccc12 (stereo not shown) [Compound H87, 3-((5-cyano-1H-pyrrolo[2,3-b]pyridin-4-yl)amino)-N-(2,2-difluoroethyl)-4-ethylpyrrolidin-1-carboxamide]",–,–,–
0.76 nM,7.51,68 nM,5.71 nM,"N#Cc1cn2c(n1)CC(Nc1c(C#N)cnc3[nH]ccc13)CC2 (stereo not shown) [Compound H90, 7-((5-cyano-1H-pyrrolo[2,3-b]pyridin-4-yl)amino)-5,6,7,8-tetrahydroimidazo[1,2-a]pyridin-2-carbonitrile]",–,–,–
0.64 nM,11.09,79 nM,7.1 nM,"CC[C@@H]1CN(C(=O)NCC#N)C[C@@H]1Nc1c(C(F)(F)F)cnc2[nH]ccc12 [Compound H93, (cis)-3-ethyl-N-(cyanmethyl)-4-((5-(trifluoromethyl)-1H-pyrrolo[2,3-b]pyridin-4-yl)amino)pyrrolidin-1-carboxamide]",–,–,–
